Assays:
Assay type in all cases: functional
BT-549 = assay: Growth inhibition of human BT-549 cells
Hs-578T = assay: Growth inhibition of human HS 578T cells
LOX IMVI = assay: Growth inhibition of human LOX IMVI cells
UO-31 = assay: Growth inhibition of human UO-31 cells
HL-60(TB) = assay: Growth inhibition of human HL-60(TB) cells
MCF7 = assay: Growth inhibition of human MCF7 cells
MDA-MB-231 = assay: Growth inhibition of human MDA-MB-231 cells
MDA-MB-468 = assay: Growth inhibition of human MDA-MB-468 cells
T47D = assay: Growth inhibition of human T47D cells
SF-268 = assay: Growth inhibition of human SF-268 cells
SF-295 = assay: Growth inhibition of human SF-295 cells
SF-539 = assay: Growth inhibition of human SF-539 cells
SNB-19 = assay: Growth inhibition of human SNB-19 cells
SNB-75 = assay: Growth inhibition of human SNB-75 cells
U-251 = assay: Growth inhibition of human U-251 cells
COLO 205 = assay: Growth inhibition of human COLO 205 cells
HCC 2998 = assay: Growth inhibition of human HCC 2998 cells
HCT-116 = assay: Growth inhibition of human HCT-116 cells
HCT-15 = assay: Growth inhibition of human HCT-15 cells
HT-29 = assay: Growth inhibition of human HT-29 cells
KM12 = assay: Growth inhibition of human KM12 cells
SW-620 = assay: Growth inhibition of human SW620 cells
786-0 = assay: Growth inhibition of human 786-0 cells
A498 = assay: Growth inhibition of human A498 cells
ACHN = assay: Growth inhibition of human ACHN cells
CAKI-1 = assay: Growth inhibition of human CAKI-1 cells
RXF 393 = assay: Growth inhibition of human RXF 393 cells
SN12C = assay: Growth inhibition of human SN12C cells
TK-10 = assay: Growth inhibition of human TK-10 cells
CCRF-CEM = assay: Growth inhibition of human CCRF-CEM cells
K562 = assay: Growth inhibition of human K562 cells
MOLT-4 = assay: Growth inhibition of human MOLT-4 cells
RPMI-8226 = assay: Growth inhibition of human RPMI-8226 cells
SR = assay: Growth inhibition of human SR cells
A549 = assay: Growth inhibition of human A549 cells
EKVX = assay: Growth inhibition of human EKVX cells
HOP-62 = assay: Growth inhibition of human HOP-62 cells
HOP-92 = assay: Growth inhibition of human HOP-92 cells
NCI-H226 = assay: Growth inhibition of human NCI-H226 cells
NCI-H23 = assay: Growth inhibition of human NCI-H23 cells
NCI-H322M = assay: Growth inhibition of human NCI-H322M cells
NCI-H460 = assay: Growth inhibition of human NCI-H460 cells
NCI-H522 = assay: Growth inhibition of human NCI-H522 cells
M14 = assay: Growth inhibition of human M14 cells
Malme-3M = assay: Growth inhibition of human Malme-3M cells
MDA-MB-435 = assay: Growth inhibition of human MDA-MB-435 cells
SK-MEL-2 = assay: Growth inhibition of human SK-MEL-2 cells
SK-MEL-28 = assay: Growth inhibition of human SK-MEL-28 cells
SK-MEL-5 = assay: Growth inhibition of human SK-MEL-5 cells
UACC-257 = assay: Growth inhibition of human UACC-257 cells
UACC-62 = assay: Growth inhibition of human UACC-62 cells
IGROV-1 = assay: Growth inhibition of human IGROV-1 cells
OVCAR-3 = assay: Growth inhibition of human OVCAR-3 cells
OVCAR-4 = assay: Growth inhibition of human OVCAR-4 cells
OVCAR-5 = assay: Growth inhibition of human OVCAR-5 cells
OVCAR-8 = assay: Growth inhibition of human OVCAR-8 cells
SK-OV-3 = assay: Growth inhibition of human SK-OV-3 cells
NCI/ADR-RES = assay: Growth inhibition of human NCI-ADR-RES cells
DU-145 = assay: Growth inhibition of human DU-145 cells
PC-3 = assay: Growth inhibition of human PC-3 cells

Measured: GI50

CCCCCCCCC/C=C(/C)CC(C)(O)CC(C)C(O)CC(=O)OC (stereo not given)
> 100000 nM: BT-549 | Hs-578T | LOX IMVI | UO-31 | HL-60(TB) | MCF7 | MDA-MB-231 | MDA-MB-468 | T47D | SF-268 | SF-295 | SF-539 | SNB-19 | SNB-75 | U-251 | COLO 205 | HCC 2998 | HCT-116 | HCT-15 | HT-29 | KM12 | SW-620 | 786-0 | A498 | ACHN | CAKI-1 | RXF 393 | SN12C | TK-10 | CCRF-CEM | K562 | MOLT-4 | RPMI-8226 | SR | A549 | EKVX | HOP-62 | HOP-92 | NCI-H226 | NCI-H23 | NCI-H322M | NCI-H460 | NCI-H522 | M14 | Malme-3M | MDA-MB-435 | SK-MEL-2 | SK-MEL-28 | SK-MEL-5 | UACC-257 | UACC-62 | IGROV-1 | OVCAR-3 | OVCAR-4 | OVCAR-5 | OVCAR-8 | SK-OV-3 | NCI/ADR-RES | DU-145 | PC-3

CCCCCCCC/C=C(/C)C[C@]1(C)C[C@H](C)[C@@H](CC(=O)O)OO1
90 nM: HL-60(TB)
10 nM: LOX IMVI
600 nM: BT-549 | Hs-578T | MCF7 | MDA-MB-231 | MDA-MB-468 | T47D | SF-268 | SF-295 | SF-539 | SNB-19 | SNB-75 | U-251 | COLO 205 | HCC 2998 | HCT-116 | HCT-15 | HT-29 | KM12 | SW-620 | 786-0 | A498 | ACHN | CAKI-1 | RXF 393 | SN12C | TK-10 | CCRF-CEM | K562 | MOLT-4 | RPMI-8226 | SR | A549 | EKVX | HOP-62 | HOP-92 | NCI-H226 | NCI-H23 | NCI-H322M | NCI-H460 | NCI-H522 | M14 | Malme-3M | MDA-MB-435 | SK-MEL-2 | SK-MEL-28 | SK-MEL-5 | UACC-257 | UACC-62 | IGROV-1 | OVCAR-3 | OVCAR-4 | OVCAR-5 | OVCAR-8 | SK-OV-3 | NCI/ADR-RES | DU-145 | PC-3
60 nM: UO-31
